PubChem BioAssay AID2060615 (Molecular Pharmacology Branch, DTP, NCI, 2025)
pIC50: −log10 of the molar value. Values joined by “and” are separate entries in the source; they are usually repeats but may differ in a detail not shown here. Equal entries are not always repeated.

Tested on: 496974-208-R-J2-PDC complex spheroids, growth % test/control
Test: Anticancer human tumor 496974-208-R-J2-PDC patient-derived pancreatic carcinoma cell line growth inhibition [CLK]
Details: for viability, T/C: stronger effect = lower value
Excerpt: A high-throughput screen of multi-cell type tumor spheroids was designed to identify active combinations of […] and targeted small molecules. Complex spheroids include a stromal component modeled by human endothelial cells (HUVEC) and fibroblasts modeled by human mesenchymal stem cells (MSCs). The concentration ranges selected for each drug and investigational agent were based upon clinically achievable concentrations if the clinical Cmax of the agent was known.
Compounds. The drugs and investigational agents: cirtuvivint (SM08502; NSC835563), CC-671 (NSC850746), vemurafenib (NSC761431), tapotoclax (NSC804041), sotorasib (NSC818433), adagrasib (NSC831453), MRTX-1133 (NSC836407), BAY2416964 (NSC825713), copanlisib (NSC816437), inavolisib (NSC800729), abemaciclib (NSC768073), osimertinib (NSC779217), entinostat (NSC756642), eltanexor (KPT-8602, NSC794443), venetoclax (NSC766270), ceralasertib (NSC777638), bortezomib (NSC756655), olaparib (NSC753686), talazoparib (NSC767125), alisertib (NSC759677), peposertib (NSC802822), gemcitabine (NSC613327), 5-fluorouracil (NSC19893), SN-38 (NSC673596), oxaliplatin (NSC266046), paclitaxel (NSC125973), and doxorubicin (NSC123127), were obtained from the National Cancer Institute (NCI) Developmental Therapeutics Program Chemical Repository. The FDA-approved anticancer drug set is available from the Developmental Therapeutics Program at https://dtp.cancer.gov/organization/dscb/obtaining/available plates.htm. […] The stock solutions were prepared in dimethyl sulfoxide (DMSO, Sigma-Aldrich, St. Louis, MO, cat. D2650), except for the platinum complexes which were prepared in saline (Quality Biological, Gaithersburg, MD, cat. 114-055-101), at 800-fold the tested concentration and stored at -70 degrees C prior to their use. All drugs and investigational agents were tested over a range starting from a high concentration at or near the clinical Cmax and decreasing in half-log increments. If the clinical Cmax for an agent had not been determined, the highest concentration tested was 10 microM.
Cell Culture. All cells were maintained in an incubator at 37 degrees C and 5% CO2 with 95% humidity. The PDC lines were cultured according to standard operating procedures established by the NCI PDMR. Briefly, all PDCs were thawed and cultured in Matrigel-coated flasks prepared with a working solution of 1X Ham's F-12 nutrient mix, without supplementation (Invitrogen, Waltham, MA, cat. 11765054), 100 U/mL penicillin-streptomycin (Invitrogen, cat. 15140122), and 2.5% Matrigel (Corning Inc., Corning, NY, cat. 354248) for the first three passages. The 947758-054-R-J2-PDC line was cultured in 6B/Colon 1A media, which includes advanced DMEM/F-12 (Thermo Fisher Scientific, cat. 12634028), 10 mM HEPES (Thermo Fisher Scientific, cat. 15630080), 1X GlutaMAX supplement (Thermo Fisher Scientific, cat. 35050061), 0.1 mg/mL primocin (InvivoGen, cat. ant-pm-2), 10% defined fetal bovine serum, heat inactivated (HyClone Laboratories Inc., cat. SH30070.03HI), 1.25 mM N-Acetyl-L-cysteine (Sigma-Aldrich, cat. A9165), 10 mM nicotinamide (Sigma-Aldrich, cat. N0636), 1X B-27 supplement (Thermo Fisher Scientific, cat. 17504044), 1X N-2 supplement (Thermo Fisher Scientific, cat. 17502048), and 10 microM Y-27632 dihydrochloride (Tocris Bioscience, cat. 1254). The 876862-298-R-J1-PDC was cultured in 6E media, which includes all 6B/Colon 1A media components plus 50% L-WRN conditioned media (ATCC, cat. CRL-3276), 50 ng/mL recombinant human EGF recombinant protein (hEGF; Thermo Fisher Scientific, cat. PHG0311), 10 ng/mL recombinant human fibroblast growth factor 10 (hGFG-10; PeproTech, cat. 100-26), 1 ng/mL recombinant human fibroblast growth factor 2 (hFGF-2; PeproTech, cat. 100-18B), and 1 µM prostaglandin E2 (PGE2; Tocris, cat. 2296). The 227483-062-R1-J1-PDC line was cultured in Panc media, containing all 6E components except hFGF-2, with the addition of 500 nM SB-431542 (Selleckchem, cat. S1067) and 10 nM gastrin (Tocris, cat. 3006). […]
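Note: spheroids exposed to the drugs for 7 days before readout.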
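Throughout, for viability, T/C: 100% = DMSO vehicle control wells.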

| SMILES | viability, T/C (compound 0.0316 µM) | viability, T/C (compound 0.1 µM) | viability, T/C (compound 0.316 µM) | viability, T/C (compound 1 µM) | viability, T/C (compound 3.16 µM) | viability, T/C (compound 10 µM) | pIC50 (curve of compound) | also measured |
| --- | --- | --- | --- | --- | --- | --- | --- | --- |
| C#Cc1c(F)ccc2cc(O)cc(-c3ncc4c(N5CC6CCC(C5)N6)nc(OCC56CCCN5CC(F)C6)nc4c3F)c12 (stereo not drawn) | 63.5% and 68.8% | 57.4% and 58.6% | 48.7% and 48% | 48.6% and 46.5% | 44.9% and 50.8% | 38% and 43.1% | 6.33 and 6.44 | – |
| C=C(F)C(=O)N1CCN(c2nc(OCC3CCCN3C)nc3c2CCN(c2cccc4cccc(Cl)c24)C3)CC1CC#N (stereo not drawn) | 111% and 105% | 108% and 95.4% | 97% and 89.5% | 95.8% and 87.1% | 93.5% and 98.2% | 2.37% and 3.13% | 5.26 and 5.25 | – |
| C=CC(=O)N1CCN(c2nc(=O)n(-c3c(C)ccnc3C(C)C)c3nc(-c4c(O)cccc4F)c(F)cc23)C(C)C1 (stereo not drawn) | 112% and 102% | 108% and 87.1% | 109% and 91.7% | 111% and 97.7% | 107% and 108% | 86.8% and 80.7% | < 5.00 | – |
| C=CC(=O)Nc1cc(Nc2nccc(-c3cn(C)c4ccccc34)n2)c(OC)cc1N(C)CCN(C)C | – | – | – | – | – | – | < 6.52 | viability, T/C (compound 0.000949 µM): 102% and 103%; viability, T/C (compound 0.003 µM): 99.3% and 105%; viability, T/C (compound 0.00949 µM): 86% and 93.1%; viability, T/C (compound 0.03 µM): 85.4% and 94.9%; viability, T/C (compound 0.0949 µM): 98.1% and 88.5%; viability, T/C (compound 0.3 µM): 70.9% and 70.3% |
| CC(C)CC(NC(=O)C(Cc1ccccc1)NC(=O)c1cnccn1)B(O)O (stereo not drawn) | – | – | – | – | – | – | 8.41 | viability, T/C (compound 0.000949 µM): 99.9%; viability, T/C (compound 0.003 µM): 63.8%; viability, T/C (compound 0.00949 µM): 0.44%; viability, T/C (compound 0.03 µM): 0.67%; viability, T/C (compound 0.0949 µM): 0.24%; viability, T/C (compound 0.3 µM): 0.27% |
| CC(CO)NC(=O)c1cc(-c2ccc(Cl)cc2)nn(-c2cnn(C)c2)c1=O (stereo not drawn) | 106% and 99.5% | 105% and 97.1% | 96.2% and 100% | 85.5% and 96.2% | 91.6% and 91.4% | 42.6% and 52.9% | 5.08 and < 5.00 | – |
| CC(Nc1ccc2c(c1)OCCn1cc(N3C(=O)OCC3C(F)F)nc1-2)C(N)=O (stereo not drawn) | 89.2% and 89.5% | 65.6% and 63.4% | 39.2% and 36.6% | 18.8% and 22.9% | 13.1% and 14.9% | 7.32% and 10.9% | 6.71 and 6.74 | – |
| CC1(C)CCC(CN2CCN(c3ccc(C(=O)NS(=O)(=O)c4ccc(NCC5CCOCC5)c([N+](=O)[O-])c4)c(Oc4cnc5[nH]ccc5c4)c3)CC2)=C(c2ccc(Cl)cc2)C1 | 115% and 95.7% | 89% and 88.2% | 99% and 101% | 99.4% and 99.5% | 96.8% and 94.7% | 43.4% and 40.6% | 5.06 and 5.09 | – |
| CC1COCCN1c1cc(C2(S(C)(=N)=O)CC2)nc(-c2ccnc3[nH]ccc23)n1 (stereo not drawn) | 119% and 107% | 105% and 97.9% | 85.5% and 91% | 94.4% and 89.3% | 57.5% and 62% | 36% and 44.6% | 5.27 and 5.14 | – |
| CCCS(=O)(=O)Nc1ccc(F)c(C(=O)c2c[nH]c3ncc(-c4ccc(Cl)cc4)cc23)c1F | 108% and 106% | 92.2% and 91.8% | 100% and 95.3% | 108% and 93.8% | 87.8% and 93.4% | 36.3% and 21.7% | 5.13 and 5.20 | – |
| CCN1CCN(Cc2ccc(Nc3ncc(F)c(-c4cc(F)c5nc(C)n(C(C)C)c5c4)n3)nc2)CC1 | 87.1% and 90.3% | 82.4% and 97.8% | 90.3% and 92.8% | 96.5% and 103% | – | – | < 6.00 | viability, T/C (compound 0.00316 µM): 102% and 112%; viability, T/C (compound 0.01 µM): 93.9% and 90.8% |
| CCc1c2c(nc3ccc(O)cc13)-c1cc3c(c(=O)n1C2)COC(=O)[C@]3(O)CC | 25.7% and 35.4% | 17.4% and 23.2% | 9.88% and 12.9% | 2.2% and 3.2% | – | – | 8.22 and 8.07 | viability, T/C (compound 0.00316 µM): 67.2% and 61.3%; viability, T/C (compound 0.01 µM): 32.4% and 47.9% |
| CN1CCN(c2cc(C(=O)Nc3cc4cc(-c5cnn(C)c5)ccc4cn3)ccn2)CC1 | 103% [middle of 12 runs] | 87.9% [middle of 12 runs] | 6.96% [middle of 11 runs] | 1.74% [middle of 12 runs] | 0.79% [middle of 12 runs] | 0.34% [middle of 8 runs] | – | IC50 (compound alone, run of 09/18/2023): 171 nM [middle of 11 runs] |
| CNC(=O)c1ccc(Nc2nc(OC3CCCC3)c3c(-c4ccc5nc(C)oc5c4)c[nH]c3n2)c(OC)c1 | 97.8% [middle of 7 runs] | 85.7% [middle of 10 runs] | 78.1% [middle of 10 runs] | 70.6% [middle of 10 runs] | 62.4% [middle of 10 runs] | 57.3% [middle of 10 runs] | – | pIC50 (compound alone, run of 09/19/2023): < 5.00 |
| COC1C=CCC(C)C(C)S(=O)(=O)NC(=O)c2ccc3c(c2)N(CC2CCC21)CC1(CCCc2cc(Cl)ccc21)CO3 (stereo not drawn) | 99.2% and 100% | 95.3% and 65.2% | 89.4% and 82.5% | 75.1% and 74.3% | 60.6% and 58.6% | 43.4% and 26% | 5.20 and 5.38 | – |
| COc1c(OCCCN2CCOCC2)ccc2c3n(c(=NC(=O)c4cnc(N)nc4)nc12)CCN3 | 32.8% and 28.6% | 9.98% and 14.7% | 7.88% and 8.03% | 3.01% and 3.54% | – | – | 7.78 and 7.84 | viability, T/C (compound 0.00316 µM): 93.4% and 97.4%; viability, T/C (compound 0.01 µM): 64.2% and 60% |
| Cn1ncnc1[C@H]1c2n[nH]c(=O)c3cc(F)cc(c23)N[C@@H]1c1ccc(F)cc1 | 93.3% and 95.1% | 86% and 104% | – | – | – | – | < 7.00 | viability, T/C (compound 0.000316 µM): 109% and 106%; viability, T/C (compound 0.001 µM): 103% and 99.5%; viability, T/C (compound 0.00316 µM): 90.4% and 101%; viability, T/C (compound 0.01 µM): 95.2% and 99.5% |
| NC(=O)C(=Cn1cnc(-c2cc(C(F)(F)F)cc(C(F)(F)F)c2)n1)c1cncnc1 | – | – | – | – | – | – | 6.97 and 6.87 | viability, T/C (compound 0.00949 µM): 97.8% and 78.4%; viability, T/C (compound 0.03 µM): 71.3% and 68.7%; viability, T/C (compound 0.0949 µM): 57.4% and 59.5%; viability, T/C (compound 0.3 µM): 29.5% and 32%; viability, T/C (compound 0.949 µM): 16% and 23.8%; viability, T/C (compound 3 µM): 11.6% and 13.4% |
| Nc1ccccc1NC(=O)c1ccc(CNC(=O)OCc2cccnc2)cc1 | 104% and 112% | 86.3% and 98.7% | 85.9% and 86.6% | 77.5% and 72.4% | 74.1% and 77.9% | 0.53% and 0.83% | 5.36 and 5.38 | – |
| Nc1ccn(C2OC(CO)C(O)C2(F)F)c(=O)n1 (stereo not drawn) | 89.3% and 93.5% | 67.2% and 76.4% | 57.7% and 72.4% | 44.9% and 58% | 50.7% and 63.3% | 44.3% and 53.2% | – | – |
| O=C(c1cc(Cc2n[nH]c(=O)c3ccccc23)ccc1F)N1CCN(C(=O)C2CC2)CC1 | 99.1% | 85.5% | 94.7% | 98.4% | 95.2% | 86.7% | < 5.00 | – |
| O=c1[nH]cc(F)c(=O)[nH]1 | 114% and 115% | 103% and 95.1% | 101% | 78.4% and 79.6% | 55.1% and 71.4% | 47.6% and 53.4% | 5.17 and < 5.00 | – |
